Source: patent publication US20110136145A1, “METHODS FOR PROMOTING FUSION AND REPROGRAMMING OF SOMATIC CELLS” (THE JOHNS HOPKINS UNIVERSITY, priority 2008, published 2011)
Entries after “also recorded” stand apart in the source; their conditions may differ.

Tested on: ESC-induced Oct4-GFP re-activation in NSCs
Experiment: CLEAR analysis of ESC fusion-induced reprogramming (PEG-induced fusion of Z-Red ESCs and CIPOE NSCs, flow cytometry)
From the text: CLEAR strategy uses engineered ESCs and NSCs for monitoring fusion-induced DsRed expression and reprogramming-induced GFP expression (FIG. 1A). Z-Red ESCs were derived from a clonal ESC line containing one copy of a transgene (CAG-loxP-LacZ::neomycin-polyA-loxP-DsRed.T3) as a Cre recombination excision reporter.
Adult NSCs were isolated from Oct4-GFP (GOF 18-A PE-EGFP) transgenic mice and transduced by retroviruses to stably co-express Cre and the puromycin resistance gene through a bicistronic cassette (termed CIPOE NSCs hereafter). Somatic cells with Oct4-GFP transgene integration have been used previously to investigate reprogramming, in which the regulatory elements of Oct4 direct reliable GFP reactivation from somatic genomes in reprogrammed ESC-like hybrid cells (also see FIG. 3). Multiple CIPOE NSC lines from Oct4-GFP transgenic mice were established, characterized and used for subsequent cell fusion experiments.
To quantitatively analyze the reprogramming-induced Oct4-GFP re-activation, dual-color flow cytometry was used to display and measure the cell population that underwent PEG-induced cell fusion. Viable cells were identified by their typical FSC (Forward Scatter) and SSC (Side Scatter) properties. To ensure appropriate gating for […] and DsRed+ events and to compensate the spectrum crossover of GFP and DsRed signals, the system was first calibrated using multiple control cells, including Z-Red ESCs, CIPOE NSCs, mixed Z-Red ESCs and CIPOE NSCs without PEG. Z-Red ESCs transfected with a constitutive Cre expression plasmid, and CIPOE NSCs transfected with a Cre excision reporter plasmid (FIG. 4A).
ESC fusion-induced Oct4 re-activation from NSCs was quantitatively measured using two different approaches. In the first approach, the reprogramming frequency (Rf) is determined by the ratio of GFP DsRed+ cells to total DsRed+ cells. […] In the second approach, the reprogramming efficacy is determined by the distribution of GFP fluorescence intensities of individual cells from the DsRed+ population (FIG. 4C). This analysis provides a measurement of the efficiency of Oct4-GFP re-activation in NSCs after successful fusion.
The protocol was optimized for PEG-induced cell fusion between ESCs and NSCs to achieve maximum efficiency and minimal toxicity. Equal numbers of ESCs and NSCs were mixed thoroughly and spun down in PBS. The pellet was loosened by gentle tapping and 50% PEG (500 μl for 1×10^7 cells) was added to the cells continuously over one minute while swirling the mixture in 37° C. water bath Next, 2 ml of ESC medium was layered on top of PEG-cell mixture and one-minute incubation in 37° C., followed by low-speed centrifugation at 1,800 rpm for 5 minutes. After removing the supernatant, the pellet was incubated with ESC medium for one minute, washed, resuspended and plated onto gelatin-coated dishes and grown in Dubelcco's Modified Eagle's Medium, 15% fetal bovine serum supplemented with mouse leukemia inhibitory factor (ESGRO), 0.1 mM nonessential amino acids, 0.1 mM β-mercaptoethanol, and 50 U/ml penicillin/50 μg/ml streptomycin (ESC medium). […] The following pharmacological inhibitors were applied in ESC-fusion experiments only during the first 48 hours after fusion. DMOG (5-10 μM; BioMol), Anacardic acid (5-10 μM; Calbiochem), Trichostatin A (TSA, 100 nM-1 μM; Sigma) and azidothymidine (AZT, 1-5 μM; Sigma).

[1] = 10 μM, 48-hour treatment, analyzed at day 4, vs DMSO

`COC(=O)CNC(=O)C(=O)OC` [DMOG, dimethyloxalylglycine] was tested, and the “Effects (on reprogramming)” value (5 μM, applied only during the first 48 hours after fusion) was “strong reprogramming deficit”, the reprogramming efficacy [1] was “significant decreases” and the reprogramming frequency [1] was “significant decreases”. For the same molecule, the “ESC-induced Oct4 re-activation in NSCs” value (inhibitor treatment after fusion) was “considerably reduced; also recorded: attenuates”.
